Data on eleven compounds can be found in patent US20220389007A1, “INHIBITORS OF HUMAN IMMUNODEFICIENCY VIRUS REPLICATION” (VIIV HEALTHCARE UK (No. 5) LIMITED, priority 2019, published 2022).

Read-outs that look alike come from different tables or passages of the source. Some results are limits rather than exact numbers.

Holding throughout (assay type): cell-based
The test system of one data set is recombinant NL4-3 virus. Nature of the data set: HIV cell culture assay (antiviral activity, luciferase readout). Put shortly:
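MT-2 cells infected for 4-5 days with NL4-3 reference virus carrying Renilla luciferase in place of part of nef, in presence of serial compound dilutions. Luciferase read with live-cell substrate; EC50 from median effect equation fit.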

A short description of data set [1]: Compound cytotoxicity, XTT-based colorimetric assay. The following applies: human; uninfected MT2 cells, day 4, XTT assay. Summed up: (§1)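 Run under the antiviral-assay protocol but without virus. Viability was read on day 4 and CC50 values were derived from the readout.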
In general terms: Formazan colour is commonly taken as a measure of viable cells.

The subject of the next data set is uninfected MT2 cells. The description is as above. The conditions noted are these: day 4, XTT assay. Summed up:
as §1

[2] abbreviates: Human immunodeficiency virus 1, NL43, MT2, MT-2 cells infected for 4-5 days with recombinant NL4-3 virus carrying Renilla luciferase.
[3] abbreviates: MT-2 cells infected for 4-5 days with recombinant NL4-3 virus carrying Renilla luciferase, read-out: EC50.

For orientation: EC50 means the midpoint of the concentration-response curve. For orientation: CC50 means the concentration that lowers cell viability or growth by half. Higher therefore signals better tolerance by the cells.

On to `Cn1nc(NS(C)(=O)=O)c2c(Cl)ccc(-n3c([C@H](Cc4cc(F)cc(F)c4)NC(=O)Cn4nc(C(F)F)c5c4C(F)(F)[C@@H]4C[C@H]54)nc4nc(-c5ccn(CCC(F)(F)F)n5)ccc4c3=O)c21` (atropisomer, axis not shown; (P)) [Example 89, N-((S)-1-((3P)-3-(4-chloro-1-methyl-3-(methylsulfonamido)-1H-indazol-7-yl)-4-oxo-7-(1-(3,3,3-trifluoropropyl)-1H-pyrazol-3-yl)-3,4-dihydropyrido[2,3-d]pyrimidin-2-yl)-2-(3,5-difluorophenyl)ethyl)-2-((3bS,4aR)-3-(difluoromethyl)-5,5-difluoro-3b,4,4a,5-tetrahydro-1H-cyclopropa[3,4]cyclopenta[1,2-c]pyrazol-1-yl)acetamide], for which the EC50 in the data set with recombinant NL4-3 virus (setting [2]) was determined as 56 pM. In data set [1], this compound came in with a CC50 at 4 day of more than 100000 pM.
The like results for `Cn1nc(NS(C)(=O)=O)c2c(Cl)ccc(-n3c([C@H](Cc4cc(F)cc(F)c4)NC(=O)Cn4nc(C(F)F)c5c4C(F)(F)[C@@H]4C[C@H]54)nc4nc(-c5cc(C(F)(F)F)[nH]n5)ccc4c3=O)c21` (atropisomer, axis not shown; (P)) [Example 90, N-((S)-1-((3P)-3-(4-chloro-1-methyl-3-(methylsulfonamido)-1H-indazol-7-yl)-4-oxo-7-(5-(trifluoromethyl)-1H-pyrazol-3-yl)-3,4-dihydropyrido[2,3-d]pyrimidin-2-yl)-2-(3,5-difluorophenyl)ethyl)-2-((3bS,4aR)-3-(difluoromethyl)-5,5-difluoro-3b,4,4a,5-tetrahydro-1H-cyclopropa[3,4]cyclopenta[1,2-c]pyrazol-1-yl)acetamide] were, in that order, 98 pM and more than 100000 pM.
In the case of `Cn1nc(NS(C)(=O)=O)c2c(Cl)ccc(-n3c([C@H](Cc4cc(F)cc(F)c4)NC(=O)Cn4nc(C(F)F)c5c4C(F)(F)[C@@H]4C[C@H]54)nc4nc(-c5csc(C(C)(C)O)n5)ccc4c3=O)c21` (atropisomer, axis not shown; (P)) [Example 91, N-((S)-1-((3P)-3-(4-chloro-1-methyl-3-(methylsulfonamido)-1H-indazol-7-yl)-7-(2-(2-hydroxypropan-2-yl)thiazol-4-yl)-4-oxo-3,4-dihydropyrido[2,3-d]pyrimidin-2-yl)-2-(3,5-difluorophenyl)ethyl)-2-((3bS,4aR)-3-(difluoromethyl)-5,5-difluoro-3b,4,4a,5-tetrahydro-1H-cyclopropa[3,4]cyclopenta[1,2-c]pyrazol-1-yl)acetamide], the EC50 with recombinant NL4-3 virus (setting [2]) came out at 37 pM. The CC50 at 4 day in data set [1] was more than 100000 pM.
For the compound `Cc1cc(-c2ccc3c(=O)n(-c4ccc(Cl)c5c(NS(C)(=O)=O)nn(C)c45)c([C@H](Cc4cc(F)cc(F)c4)NC(=O)Cn4nc(C(F)F)c5c4C(F)(F)[C@@H]4C[C@H]54)nc3n2)n[nH]1` (atropisomer, axis not shown; (P)) [Example 98, N-((S)-1-((3P)-3-(4-chloro-1-methyl-3-(methylsulfonamido)-1H-indazol-7-yl)-7-(5-methyl-1H-pyrazol-3-yl)-4-oxo-3,4-dihydropyrido[2,3-d]pyrimidin-2-yl)-2-(3,5-difluorophenyl)ethyl)-2-((3bS,4aR)-3-(difluoromethyl)-5,5-difluoro-3b,4,4a,5-tetrahydro-1H-cyclopropa[3,4]cyclopenta[1,2-c]pyrazol-1-yl)acetamide], the EC50 in the data set with recombinant NL4-3 virus (setting [2]) stood at 200 pM. Moreover, in data set [1], the CC50 at 4 day was more than 100000 pM.
`Cn1nc(NS(C)(=O)=O)c2c(Cl)ccc(-n3c([C@H](Cc4cc(F)cc(F)c4)NC(=O)Cn4nc(C(F)F)c5c4C(F)(F)[C@@H]4C[C@H]54)nc4nc(-c5cnc(C(C)(F)F)s5)ccc4c3=O)c21` (atropisomer, axis not shown; (P)) [Example 99, N-((S)-1-((3P)-3-(4-chloro-1-methyl-3-(methylsulfonamido)-1H-indazol-7-yl)-7-(2-(1,1-difluoroethyl)thiazol-5-yl)-4-oxo-3,4-dihydropyrido[2,3-d]pyrimidin-2-yl)-2-(3,5-difluorophenyl)ethyl)-2-((3bS,4aR)-3-(difluoromethyl)-5,5-difluoro-3b,4,4a,5-tetrahydro-1H-cyclopropa[3,4]cyclopenta[1,2-c]pyrazol-1-yl)acetamide]: the concentration for a half-maximal effect (EC50) in the data set with recombinant NL4-3 virus (setting [2]) is 62 pM. For the same compound, the CC50 at 4 day in data set [1] was more than 100000 pM.
For the compound `Cn1nc(NS(C)(=O)=O)c2c(Cl)ccc(-n3c([C@H](Cc4cc(F)cc(F)c4)NC(=O)Cn4nc(C(F)F)c5c4C(F)(F)[C@@H]4C[C@H]54)nc4nc(-c5cc(C(F)(F)F)n(CC(C)(F)F)n5)ccc4c3=O)c21` (single isomer, unassigned) [Example 94], the EC50 with recombinant NL4-3 virus (setting [2]) is 160 pM. In data set [1], this compound had a CC50 at 4 day of more than 100000 pM.
For `Cc1cc(-c2ccc3c(=O)n(-c4ccc(Cl)c5c(NS(C)(=O)=O)nn(C)c45)c([C@H](Cc4cc(F)cc(F)c4)NC(=O)Cn4nc(C(F)F)c5c4C(F)(F)[C@@H]4C[C@H]54)nc3n2)nn1CC(C)(F)F` (single isomer, unassigned) [Example 96], in the data set with recombinant NL4-3 virus (setting [2]), the EC50 was found to be 44 pM. In addition, in data set [1], the CC50 at 4 day is more than 100000 pM.
The like results for `Cc1cc(-c2ccc3c(=O)n(-c4ccc(Cl)c5c(NS(C)(=O)=O)nn(C)c45)c([C@H](Cc4cc(F)cc(F)c4)NC(=O)Cn4nc(C(F)F)c5c4C(F)(F)[C@@H]4C[C@H]54)nc3n2)n(CC(C)(F)F)n1` (single isomer, unassigned) [Example 97] were, in that order, 12000 pM and more than 100000 pM.
For `Cn1nc(NS(C)(=O)=O)c2c(Cl)ccc(-n3c([C@H](Cc4cc(F)cc(F)c4)NC(=O)Cn4nc(C(F)F)c5c4C(F)(F)[C@@H]4C[C@H]54)nc4nc(-c5cnc(C(C)(C)O)s5)ccc4c3=O)c21` [Example 92, N-((S)-1-((3P)-3-(4-chloro-1-methyl-3-(methylsulfonamido)-1H-indazol-7-yl)-7-(2-(2-hydroxypropan-2-yl)thiazol-5-yl)-4-oxo-3,4-dihydropyrido[2,3-d]pyrimidin-2-yl)-2-(3,5-difluorophenyl)ethyl)-2-((3bS,4aR)-3-(difluoromethyl)-5,5-difluoro-3b,4,4a,5-tetrahydro-1H-cyclopropa[3,4]cyclopenta[1,2-c]pyrazol-1-yl)acetamide], in the data set with recombinant NL4-3 virus (setting [3]), the EC50 was found to be 65 pM. In the data set on uninfected MT2 cells, this compound showed a CC50 of more than 100000 pM.
For the compound `Cn1nc(NS(C)(=O)=O)c2c(Cl)ccc(-n3c([C@H](Cc4cc(F)cc(F)c4)NC(=O)Cn4nc(C(F)F)c5c4C(F)(F)[C@@H]4C[C@H]54)nc4nc(-c5csc(S(C)(=O)=O)n5)ccc4c3=O)c21` [Example 93, N-((S)-1-((3P)-3-(4-chloro-1-methyl-3-(methylsulfonamido)-1H-indazol-7-yl)-7-(2-(methylsulfonyl)thiazol-4-yl)-4-oxo-3,4-dihydropyrido[2,3-d]pyrimidin-2-yl)-2-(3,5-difluorophenyl)ethyl)-2-((3bS,4aR)-3-(difluoromethyl)-5,5-difluoro-3b,4,4a,5-tetrahydro-1H-cyclopropa[3,4]cyclopenta[1,2-c]pyrazol-1-yl)acetamide], the EC50 in the data set on recombinant NL4-3 virus (setting [3]) was determined as 56 pM. This compound returned a CC50 with uninfected MT2 cells of more than 100000 pM.
Taken in the same sequence, the figures for `Cn1nc(NS(C)(=O)=O)c2c(Cl)ccc(-n3c([C@H](Cc4cc(F)cc(F)c4)NC(=O)Cn4nc(C(F)F)c5c4C(F)(F)[C@@H]4C[C@H]54)nc4nc(-c5cc(C(F)(F)F)nn5CC(C)(F)F)ccc4c3=O)c21` [Example 95, N-((S)-1-((3P)-3-(4-chloro-1-methyl-3-(methylsulfonamido)-1H-indazol-7-yl)-7-(1-(2,2-difluoropropyl)-3-(trifluoromethyl)-1H-pyrazol-5-yl)-4-oxo-3,4-dihydropyrido[2,3-d]pyrimidin-2-yl)-2-(3,5-difluorophenyl)ethyl)-2-((3bS,4aR)-3-(difluoromethyl)-5,5-difluoro-3b,4,4a,5-tetrahydro-1H-cyclopropa[3,4]cyclopenta[1,2-c]pyrazol-1-yl)acetamide] were 250 pM and more than 100000 pM.
